Measured values from article PMC4620744 (Molecular cell, 2015).
Where no end group is shown, it is not given here.

Tests used:
H2A R78A H2A-H2B^30-130 = test: ITC binding to H2A-H2B^30-130 bearing H2A R78A; parameters: species or system Saccharomyces cerevisiae
H2A-H2B^30-130 H2B M62E = test: ITC binding to H2A-H2B^30-130 bearing H2B M62E; parameters: species or system Saccharomyces cerevisiae
H2A R78E H2A-H2B^30-130 = test: ITC binding to H2A-H2B^30-130 bearing H2A R78E; parameters: species or system Saccharomyces cerevisiae
full-length H2A-H2B = full-length H2A-H2B (Saccharomyces cerevisiae, UniProt P02293+P04911); test: ITC binding to full-length H2A-H2B
Chain of full-length H2A-H2B (P04911 2-132 limits assumed): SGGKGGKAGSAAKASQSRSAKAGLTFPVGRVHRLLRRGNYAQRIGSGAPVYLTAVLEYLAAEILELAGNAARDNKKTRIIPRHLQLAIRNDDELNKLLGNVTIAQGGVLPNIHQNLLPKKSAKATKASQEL
Chain of full-length H2A-H2B (P02293 2-131 limits assumed): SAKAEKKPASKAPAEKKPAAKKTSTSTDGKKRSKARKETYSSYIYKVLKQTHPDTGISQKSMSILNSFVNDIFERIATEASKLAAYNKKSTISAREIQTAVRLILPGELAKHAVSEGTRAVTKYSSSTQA

[1] = tested on: H2A-H2B^30-130 bearing H2B M62A; test: ITC binding to H2A-H2B^30-130 bearing H2B M62A; parameters: species or system Saccharomyces cerevisiae
[2] = tested on: H2A-H2B^30-130 bearing H2B Y45A; test: ITC binding to H2A-H2B^30-130 bearing H2B Y45A; parameters: species or system Saccharomyces cerevisiae
H2A-H2B M62E [3] = test: EMSA binding of full-length FACT to H2A-H2B M62E; parameters: species or system Saccharomyces cerevisiae; settings: not shown
H2A.Z-H2B = test: EMSA of full-length FACT with H2A.Z-H2B; format: binding, Saccharomyces cerevisiae
H2A-H2B M62E [4] = test: ITC binding of full-length FACT to H2A-H2B M62E; parameters: species or system Saccharomyces cerevisiae

In the case of “Spt16^958-990: Spt16 peptide of residues 958-990 used for crystal structure and histone mutant binding (DDEASDESEEEVSEYEASEDDVSDESAFSEDEE)”, the “binding to H2A R78A histone mutant (in words)” value (H2A R78A H2A-H2B^30-130) is reported as “little effect on binding”, the “binding to H2B M62E histone mutant (in words)” value (H2A-H2B^30-130 H2B M62E) is reported as “reduced binding to undetectable levels” and the “binding to H2A R78E histone mutant (in words)” value (H2A R78E H2A-H2B^30-130) is reported as “affinity was completely lost”.
For Pob3: Pob3 subunit of FACT, the Kd (full-length H2A-H2B; read-out: dissociation constant (KD) for H2A-H2B, 25 °C, 25 mM Na-K phosphate pH 7.4, 200 mM NaCl, at least triplicate) was about 1000 nM.
“Spt16-C^958-999: Spt16 residues 958-999 (DDEASDESEEEVSEYEASEDDVSDESAFSEDEEGSEVDDDIS)” was tested, and the “binding to H2A-H2B (in words)” value (full-length H2A-H2B; 25 °C, pH 7.4, 200 mM NaCl) was “recapitulates the full H2A-H2B binding activity of Spt16”.
“DESVDEDFQVSSDNDADEVAEEFDS [Pob3^505-529]” was tested, and the “reduction in binding (fold) with H2B M62A relative to wild-type histones” value [1] was 9 fold and the “reduction in binding (fold) with H2B Y45A relative to wild-type histones” value [2] was 12 fold.
“full-length FACT: full-length S. cerevisiae Spt16-Pob3 heterodimer” was tested, and the “binding of full-length FACT to H2A-H2B M62E by EMSA (in words)” value (H2A-H2B M62E [3]) was “diminished binding”, the “stoichiometry of binding to H2A-H2B” value (full-length H2A-H2B; 25 °C, pH 7.4, 200 mM NaCl) was “one full-length Spt16-Pob3 heterodimer bound two H2A-H2B dimers” and the “discrimination between H2A.Z-H2B and H2A-H2B by EMSA (in words)” value (H2A.Z-H2B) was “does not differentiate between H2A.Z-H2B and H2A-H2B”. The “binding of full-length FACT to H2A-H2B M62E by ITC (in words)” value (H2A-H2B M62E [4]) was “severe reduction in the binding”.
